Consider 15 compounds from US20230295118A1 (EnhancedBio Inc., priority 2022, published 2023).

The structures appear in SMILES notation.

Format in all cases: cell-based
For experiment [1], the target named is T1, CDK6 (Homo sapiens, UniProt Q00534).
T1 construct: endogenous in cells
Kind of experiment: CDK6 degradation (DC50, Dmax).

Experiment [2] has as its target T2, CDK4 (Homo sapiens, UniProt P11802).
T2 construct: endogenous in cells
The experiment in a line: CDK4 degradation (DC50, Dmax).

Experiment [3] has as its system mantle cell lymphoma cell (Mino or JeKo-1). The experiment in a line: Antiproliferative effect, MTS cell viability assay. The conditions noted are these: 72 h, mantle cell lymphoma cell (Mino or JeKo-1), MTS assay, read-out: IC50 (anti-proliferation). The procedure, abridged:
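Mino cells treated with compounds at 0, 0.0001, 0.001, 0.01, 0.1, 1 μM for 72 h; palbociclib and abemaciclib as positive controls. Viability by MTS, formazan absorbance read at 490 nm.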
On the technique in general: Tetrazolium dyes change colour on reduction, which living cells bring about.

T1 sequence (Q00534 whole entry): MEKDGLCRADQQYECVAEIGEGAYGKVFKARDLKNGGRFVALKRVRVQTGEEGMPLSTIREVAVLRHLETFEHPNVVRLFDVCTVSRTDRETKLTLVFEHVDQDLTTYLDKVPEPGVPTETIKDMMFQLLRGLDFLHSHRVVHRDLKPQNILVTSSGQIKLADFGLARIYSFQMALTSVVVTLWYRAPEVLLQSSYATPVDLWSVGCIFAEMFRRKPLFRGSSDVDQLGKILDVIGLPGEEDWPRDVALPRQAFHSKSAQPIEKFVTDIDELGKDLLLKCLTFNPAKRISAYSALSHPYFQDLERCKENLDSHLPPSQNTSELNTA
T2 sequence (P11802 whole entry): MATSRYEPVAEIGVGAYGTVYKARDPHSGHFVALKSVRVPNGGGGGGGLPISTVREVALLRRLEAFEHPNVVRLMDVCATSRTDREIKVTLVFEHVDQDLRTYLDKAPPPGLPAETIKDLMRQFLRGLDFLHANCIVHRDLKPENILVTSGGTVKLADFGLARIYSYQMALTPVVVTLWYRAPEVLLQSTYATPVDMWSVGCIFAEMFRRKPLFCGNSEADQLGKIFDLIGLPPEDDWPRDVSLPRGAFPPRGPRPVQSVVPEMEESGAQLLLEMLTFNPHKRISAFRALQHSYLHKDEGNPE

Broadly, the DC50 is the concentration at which degradation of the target reaches its halfway point. As a reminder, the Dmax is the largest share of the target that was removed. Higher therefore signals a fuller loss of target. With `CC(=O)c1c(C)c2cnc(Nc3ccc(C4CCN(CC5CN(c6ccc7c(c6)CN(C6CCC(=O)NC6=O)C7=O)C5)CC4)cn3)nc2n(C2CCCC2)c1=O` (stereo not drawn) [Compound 126, 3-(5-(3-((4-(6-((6-acetyl-8-cyclopentyl-5-methyl-7-oxo-7,8-dihydropyrido[2,3-d]pyrimidin-2-yl)amino)pyridin-3-yl)piperidin-1-yl)methyl)azetidin-1-yl)-1-oxoisoindolin-2-yl) piperidine-2,6-dione], in experiment [1], the DC50 was under 50 nM and the Dmax is over 80%. In addition, in experiment [2], the DC50 is under 50 nM and the greatest degradation seen (Dmax) was over 80%. Also, the IC50 in experiment [3] is under 50 nM.
In experiment [1], `CC(=O)c1c(C)c2cnc(Nc3ccc(C4CCN(CC5CN(c6ccc(C(=O)NC7CCC(=O)NC7=O)cc6)C5)CC4)cn3)nc2n(C2CCCC2)c1=O` (stereo not drawn) [Compound 127, 4-(3-((4-(6-((6-acetyl-8-cyclopentyl-5-methyl-7-oxo-7,8-dihydropyrido[2,3-d]pyrimidin-2-yl)amino)pyridin-3-yl)piperidin-1-y)methyl)azetidin-1-yl)-N-(2,6-dioxopiperidin-3-yl)benzamide] gave a DC50 of 50 to 200 nM and a Dmax of over 80%. In experiment [2], this compound registered a half-maximal degradation concentration (DC50) of 50 to 200 nM and a Dmax of over 80%. The IC50 in experiment [3] is under 50 nM.
`CC(=O)c1c(C)c2cnc(Nc3ccc(C4CCN(CC5CN(c6ccc(NC7CCC(=O)NC7=O)cc6)C5)CC4)cn3)nc2n(C2CCCC2)c1=O` (stereo not drawn) [Compound 128, 3-((4-(3-((4-(6-((6-acetyl-8-cyclopentyl-5-methyl-7-oxo-7,8-dihydropyrido[2,3-d]pyrimidin-2-yl)amino)pyridin-3-yl)piperidin-1-yl)methyl)azetidin-1-yl)phenyl)amino) piperidine-2,6-dione]: the DC50 in experiment [1] and in experiment [2] was under 50 nM each time. Also, the greatest degradation seen (Dmax) in experiment [1] and in experiment [2] was over 80% in each case. Also, in experiment [3], the IC50 was under 50 nM.
In the case of `CC(=O)c1c(C)c2cnc(Nc3ccc(C4CCN(C(=O)C5CN(c6ccc7c(c6)C(=O)N(C6CCC(=O)NC6=O)C7=O)C5)CC4)cn3)nc2n(C2CCCC2)c1=O` (stereo not drawn) [Compound 129, 5-(3-(4-(6-((6-acetyl-8-cyclopentyl-5-methyl-7-oxo-7,8-dihydropyrido[2,3-d]pyrimidin-2-yl)amino)pyridin-3-yl)piperidine-1-carbonyl)azetidin-1-yl)-2-(2,6-dioxopiperidin-3-yl)isoindoline-1,3-dione], the DC50 in experiment [1] and in experiment [2] was 50 to 200 nM each time. The Dmax in experiment [1] and in experiment [2] was over 80% throughout. Moreover, the IC50 in experiment [3] is 50 to 200 nM.
As for `CC(=O)c1c(C)c2cnc(Nc3ccc(C4CCN(C(=O)C5CN(c6ccc7c(c6)CN(C6CCC(=O)NC6=O)C7=O)C5)CC4)cn3)nc2n(C2CCCC2)c1=O` (stereo not drawn) [Compound 130, 3-(5-(3-(4-(6-((6-acetyl-8-cyclopentyl-5-methyl-7-oxo-7,8-dihydropyrido[2,3-d]pyrimidin-2-yl)amino)pyridin-3-yl)piperidine-1-carbonyl)azetidin-1-yl)-1-oxoisoindolin-2-yl)piperidine-2,6-dione], the DC50 in experiment [1] was under 50 nM; in experiment [2], 50 to 200 nM. The Dmax was over 60% in experiment [1] and over 80% in experiment [2]. In addition, in experiment [3], the IC50 was under 50 nM.
As to `CC(=O)c1c(C)c2cnc(Nc3ccc(C4CCN(C(=O)C5CN(c6ccc(C(=O)NC7CCC(=O)NC7=O)cc6)C5)CC4)cn3)nc2n(C2CCCC2)c1=O` (stereo not drawn) [Compound 131, 4-(3-(4-(6-((6-acetyl-8-cyclopentyl-5-methyl-7-oxo-7,8-dihydropyrido[2,3-d]pyrimidin-2-yl)amino)pyridin-3-yl)piperidine-1-carbonyl)azetidin-1-yl)-N-(2,6-dioxopiperidin-3-yl)benzamide], in experiment [1], the 50% degradation concentration (DC50) was in the range of 50 to 200 nM and the Dmax was over 60%. In experiment [2], this compound showed a DC50 of 50 to 200 nM and a Dmax of over 60%. Also, the IC50 in experiment [3] was 50 to 200 nM.
Regarding `CC(=O)c1c(C)c2cnc(Nc3ccc(C4CCN(C(=O)C5CN(c6ccc(NC7CCC(=O)NC7=O)cc6)C5)CC4)cn3)nc2n(C2CCCC2)c1=O` (stereo not drawn) [Compound 132, 3-((4-(3-(4-(6-((6-acetyl-8-cyclopentyl-5-methyl-7-oxo-7,8-dibydropyrido[2,3-d]pyrimidin-2-yl)amino)pyridin-3-yl)piperidine-1-carbonyl)azetidin-1-yl)phenyl)amino) piperidine-2,6-dione], the results for the DC50 in experiment [1] and in experiment [2] were under 50 nM and 50 to 200 nM, respectively. Moreover, the Dmax in experiment [1] and in experiment [2] was over 80% throughout. In addition, the IC50 in experiment [3] was under 50 nM.
`Cc1nc2c(F)cc(-c3nc(Nc4ccc(CN5CCN(CC6CN(c7ccc(C(=O)NC8CCC(=O)NC8=O)cc7)C6)CC5)cn4)ncc3F)cc2n1C(C)C` (stereo not drawn) [Compound 133, N-(2,6-dioxopiperidin-3-yl)-4-(3-((4-((6-((5-fluoro-4-4-fluoro-1-isopropyl-2-methyl-1H-benzo[d]imidazol-6-yl)pyrimidin-2-ylamino)pyridin-3-yl)methyl)piperazin-1-yl)methyl)azetidin-1-yl)benzamide]: the DC50 in experiment [1] and in experiment [2] was under 50 nM each time. Besides, the greatest degradation seen (Dmax) in experiment [1] and in experiment [2] was over 80% each time. In experiment [3], the IC50 was under 50 nM.
Turning to `Cc1nc2c(F)cc(-c3nc(Nc4ccc(CN5CCN(CC6CN(c7ccc(NC8CCC(=O)NC8=O)cc7)C6)CC5)cn4)ncc3F)cc2n1C(C)C` (stereo not drawn) [Compound 134], in experiment [1], the half-maximal degradation concentration (DC50) was under 50 nM and the Dmax was over 80%. Also, in experiment [2], the DC50 was under 50 nM and the Dmax was over 80%. In addition, in experiment [3], the IC50 is under 50 nM.
Take `Cc1nc2c(F)cc(-c3nc(Nc4ccc(CN5CCN(C(=O)C6CN(c7ccc8c(c7)C(=O)N(C7CCC(=O)NC7=O)C8=O)C6)CC5)cn4)ncc3F)cc2n1C(C)C` (stereo not drawn) [Compound 135, 2-(2,6-dioxopiperidin-3-yl)-5-(3-(4-((6-((5-fluoro-4-(4-fluoro-1-isopropyl-2-methyl-1H-benzo[d]imidazol-6-yl)pyrimidin-2-yl)amino)pyridin-3-yl)methyl)piperazine-1-carbonyl)azetidin-1-yl)isoindoline-1,3-dione]: the DC50 in experiment [1] was 50 to 200 nM; in experiment [2] it was under 50 nM. Besides, the greatest degradation seen (Dmax) in experiment [1] is over 60%; in experiment [2] it was over 80%. In addition, in experiment [3], the IC50 is under 50 nM.
Regarding `Cc1nc2c(F)cc(-c3nc(Nc4ccc(CN5CCN(C(=O)C6CN(c7ccc8c(c7)CN(C7CCC(=O)NC7=O)C8=O)C6)CC5)cn4)ncc3F)cc2n1C(C)C` (stereo not drawn) [Compound 136, 3-(5-(3-(4-((6-((5-fluoro-4-(4-fluoro-1-isopropyl-2-methyl-1H-benzo[d]imidazol-6-yl)pyrimidin-2-yl)amino)pyridin-3-yl)methyl)piperazine-1-carbonyl)azetidin-1-yl)-1-oxoisoindolin-2-yl) piperidine-2,6-dione], in experiment [1], the DC50 was in the range of 50 to 200 nM and the Dmax is over 80%. For the same compound, in experiment [2], the DC50 lay within 50 to 200 nM and the Dmax is over 80%. For the same compound, in experiment [3], the IC50 is under 50 nM.
Take `Cc1nc2c(F)cc(-c3nc(Nc4ccc(CN5CCN(C(=O)C6CN(c7ccc(C(=O)NC8CCC(=O)NC8=O)cc7)C6)CC5)cn4)ncc3F)cc2n1C(C)C` (stereo not drawn) [Compound 137, N-(2,6-dioxopiperidin-3-yl)-4-(3-(4-((6-((5-fluoro-4-(4-fluoro-1-isopropyl-2-methyl-1H-benzo[d]imidazol-6-yl)pyrimidin-2-yl)amino)pyridin-3-yl)methyl)piperazine-1-carbonyl)azetidin-1-yl)benzamide]: in experiment [1], the DC50 fell in the range of 50 to 200 nM and the greatest degradation seen (Dmax) was over 60%. Further, in experiment [2], the DC50 fell in the range of 50 to 200 nM and the Dmax was over 60%. Moreover, in experiment [3], the IC50 lay within 50 to 200 nM.
`Cc1nc2c(F)cc(-c3nc(Nc4ccc(CN5CCN(C(=O)C6CN(c7ccc(NC8CCC(=O)NC8=O)cc7)C6)CC5)cn4)ncc3F)cc2n1C(C)C` (stereo not drawn) [Compound 138, 3-((4-(3-(4-((6-((5-fluoro-4-(4-fluoro-1-isopropyl-2-methyl-1H-benzo[d]imidazol-6-yl)pyrimidin-2-yl)amino)pyridin-3-yl)methyl)piperazine-1-carbonyl)azetidin-1-yl)phenyl)amino) piperidine-2,6-dione]: the DC50 in experiment [1] and in experiment [2] was 50 to 200 nM in each case. In addition, the greatest degradation seen (Dmax) in experiment [1] and in experiment [2] was over 60% each time. Also, in experiment [3], the IC50 fell in the range of 50 to 200 nM.
With `Cc1nc2c(F)cc(-c3nc(Nc4ccc(CC5CCN(CC6CN(c7ccc8c(c7)C(=O)N(C7CCC(=O)NC7=O)C8=O)C6)CC5)cn4)ncc3F)cc2n1C(C)C` (stereo not drawn) [Compound 139, 2-(2,6-dioxopiperidin-3-yl)-5-(3-((4-((6-((5-fluoro-4-(4-fluoro-1-isopropyl-2-methyl-1H-benzo[d]imidazol-6-yl)pyrimidin-2-yl)amino)pyridin-3-yl)methyl)piperidin-1-yl)methyl)azetidin-1-yl)isoindoline-1,3-dione], the DC50 in experiment [1] and in experiment [2] was under 50 nM in each case. The Dmax in experiment [1] and in experiment [2] was over 80% each time. Also, in experiment [3], the IC50 is under 50 nM.
With `Cc1nc2c(F)cc(-c3nc(Nc4ccc(CC5CCN(CC6CN(c7ccc8c(c7)CN(C7CCC(=O)NC7=O)C8=O)C6)CC5)cn4)ncc3F)cc2n1C(C)C` (stereo not drawn) [Compound 140, 3-(5-(3-((4-((6-((5-fluoro-4-(4-fluoro-1-isopropyl-2-methyl-1H-benzo[d]imidazol-6-yl)pyrimidin-2-yl)amino)pyridin-3-yl)methyl)piperidin-1-yl)methyl)azetidin-1-yl)-1-oxoisoindolin-2-yl)piperidine-2,6-dione], the DC50 in experiment [1] and in experiment [2] was under 50 nM in each case. The maximal degradation (Dmax) in experiment [1] and in experiment [2] was over 80% each time. Besides, in experiment [3], the IC50 is under 50 nM.
